Results taken from patent US20160272617A1, “SUBSTITUTED PHENYLALANINE DERIVATIVES” (BAYER PHARMA AKTIENGESELLSCHAFT, priority 2013, published 2016).
Structures can show the parent of a compound that is named as a salt.

How the values were obtained:
[1] = test system: human and animal plasma; assay: Determination of anticoagulatory activity: activated partial thromboplastin time (aPTT) in plasma; settings: concentration of test substance which brings about a 1.5-fold extension of the aPTT; plasma species not given
How it was run: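 Citrated plasma (1:9, 0.11 M citrate; 4000 g, 15 min) from human or animal blood incubated with test compound and cephalin/kaolin PTT reagent for 3 min at 37° C.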

[2] = target: T1, human plasmin (Homo sapiens, UniProt P00747); assay: Measurement of plasmin inhibition (fluorogenic peptide substrate MeOSuc-Ala-Phe-Lys-AMC); type: biochemical; settings: plasmin from Kordia, 15 min preincubation, 30 min at 22° C., fluorescence
T1 construct: purchased Kordia
Method: The plasmin inhibition of the inventive substances is determined using a biochemical test system which utilizes the reaction of a peptidic plasmin substrate to determine the enzymatic activity of human plasmin. Here, plasmin cleaves from the peptic plasmin substrate the C-terminal aminomethylcoumarin (AMC), the fluorescence of which is measured. The determinations are carried out in microtitre plates.
Test substances are dissolved in dimethyl sulphoxide and serially diluted in dimethyl sulphoxide (3000 μM to 0.0078 μM; resulting final concentrations in the test: 50 μM to 0.00013 μM). In each case 1 μl of the diluted substance solutions are placed into the wells of white microtitre plates from Greiner (384 wells). Subsequently, the following are added successively: 20 μl of assay buffer (50 mmol/Tris buffer pH 7.4; 100 mmol/l sodium chloride; 5 mmol/calcium chloride; 0.1% bovine serum albumin) and 20 μl of plasmin from Kordia (0.3 μg/ml in assay buffer) are then added successively. After 15 min of incubation, the enzyme reaction is started by addition of 20 μl of the plasmin substrate MeOSuc-Ala-Phe-Lys-AMC dissolved in assay buffer (150 μM in assay buffer) from Bachem, the mixture is incubated at room temperature (22° C.) for 30 min and fluorescence is then measured (excitation: 360 nm, emission: 460 nm). The measured emissions of the test batches with test substance are compared to those of control batches without test substance (only dimethyl sulphoxide instead of test substance in dimethyl sulphoxide), and the IC50 values are calculated from the concentration/activity relationships.

[3] = target: T2, human factor XIa (Homo sapiens, UniProt P03951); assay: Measurement of FXIa inhibition (fluorogenic peptide substrate Boc-Glu(OBzl)-Ala-Arg-AMC); type: biochemical; settings: factor XIa from Kordia, 15 min preincubation, 30 min at 22° C., fluorescence
T2 construct: purchased Kordia
How it was run: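 Released AMC fluorescence (360/460 nm) read after 30 min at 22 °C. The reaction was started with Boc-Glu(OBzl)-Ala-Arg-AMC (10 μM stock) after a 15 min preincubation of the enzyme (0.45 nM stock) with compound (final 50 μM to 0.00013 μM).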

T2 sequence (P03951 388-625 limits assumed): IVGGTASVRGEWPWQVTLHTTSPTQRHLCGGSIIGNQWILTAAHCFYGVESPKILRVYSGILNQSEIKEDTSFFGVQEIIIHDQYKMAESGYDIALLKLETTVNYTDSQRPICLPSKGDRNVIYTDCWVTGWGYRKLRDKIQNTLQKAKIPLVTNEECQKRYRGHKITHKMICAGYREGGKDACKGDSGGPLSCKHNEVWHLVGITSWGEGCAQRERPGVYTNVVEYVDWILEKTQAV
T2 sequence (P03951 19-387 partner limits assumed): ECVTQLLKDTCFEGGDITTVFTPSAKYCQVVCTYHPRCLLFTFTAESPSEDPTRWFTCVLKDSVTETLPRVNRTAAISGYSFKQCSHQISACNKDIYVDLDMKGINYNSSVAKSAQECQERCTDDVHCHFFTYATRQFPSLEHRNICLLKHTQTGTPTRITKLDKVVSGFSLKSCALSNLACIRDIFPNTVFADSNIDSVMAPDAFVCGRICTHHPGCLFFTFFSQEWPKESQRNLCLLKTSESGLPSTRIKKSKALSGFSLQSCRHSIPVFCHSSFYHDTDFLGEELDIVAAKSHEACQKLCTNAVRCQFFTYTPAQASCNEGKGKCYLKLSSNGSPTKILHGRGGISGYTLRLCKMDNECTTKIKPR
T1 sequence (P00747 581-810 limits assumed): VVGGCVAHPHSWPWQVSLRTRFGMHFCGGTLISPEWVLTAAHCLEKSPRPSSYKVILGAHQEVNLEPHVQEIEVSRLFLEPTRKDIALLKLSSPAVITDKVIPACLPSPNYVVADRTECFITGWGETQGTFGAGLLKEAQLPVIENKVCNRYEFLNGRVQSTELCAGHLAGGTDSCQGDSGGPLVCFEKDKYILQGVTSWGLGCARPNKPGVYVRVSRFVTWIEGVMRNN
T1 sequence (P00747 97-580 partner limits assumed): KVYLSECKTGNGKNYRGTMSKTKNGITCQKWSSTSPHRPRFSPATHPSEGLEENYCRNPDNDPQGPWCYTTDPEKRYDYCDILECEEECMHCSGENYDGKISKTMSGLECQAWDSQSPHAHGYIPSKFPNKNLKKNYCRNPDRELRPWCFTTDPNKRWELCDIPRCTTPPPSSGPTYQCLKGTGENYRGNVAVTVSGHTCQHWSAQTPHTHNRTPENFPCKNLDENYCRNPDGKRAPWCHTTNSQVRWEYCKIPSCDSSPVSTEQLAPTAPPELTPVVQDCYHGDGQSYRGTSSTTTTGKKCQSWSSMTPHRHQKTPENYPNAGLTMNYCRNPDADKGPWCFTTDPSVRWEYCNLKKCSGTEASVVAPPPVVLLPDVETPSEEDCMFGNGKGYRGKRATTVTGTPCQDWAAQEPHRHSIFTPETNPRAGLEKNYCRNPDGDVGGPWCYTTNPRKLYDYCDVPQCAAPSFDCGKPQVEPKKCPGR

SMILES	aPTT [1]	IC50 [2]	IC50 [3]
Cc1cc(C(=O)NC(C)C)ccc1-c1ccc(C[C@H](NC(=O)[C@H]2CC[C@H](CN)CC2)C(=O)Nc2ccc(-c3nnc(C(F)(F)C(F)(F)C(=O)O)[nH]3)cc2)cc1 [Example 116, 3-{5-[4-({(2S)-2-({[trans-4-(Aminomethyl)cyclohexyl]carbonyl}amino)-3-[4′-(isopropylcarbamoyl)-2′-methylbiphenyl-4-yl]propanoyl}amino)phenyl]-4H-1,2,4-triazol-3-yl}-2,2,3,3-tetrafluoropropanoic acid hydrochloride]	0.57 µmol/L	4.4 nM	2 nM
Cc1cc(C(=O)NC2CC(O)C2)ccc1-c1ccc(C[C@H](NC(=O)[C@H]2CC[C@H](CN)CC2)C(=O)Nc2ccc3cn[nH]c3c2)cc1 (stereo partly drawn) [Example 164, 4′-[(2S)-2-({[trans-4-(Aminomethyl)cyclohexyl]carbonyl}amino)-3-(1H-indazol-6-ylamino)-3-oxopropyl]-N-(3-hydroxycyclobutyl)-2-methylbiphenyl-4-carboxamide hydrochloride]	0.13 µmol/L	13 nM	7.6 nM
CC(NC(=O)c1ccc(-c2ccc(CC(NC(=O)[C@H]3CC[C@H](CN)CC3)C(=O)Nc3ccc(-c4nnn[nH]4)cc3)cc2)c(Cl)c1)C1CC1 (stereo partly drawn) [Example 136, hydrochloride]	0.29 µmol/L	1.5 nM	1.2 nM
Cc1cc(C(=O)N[C@@H](C)C(F)(F)F)ccc1-c1ccc(C[C@H](NC(=O)[C@H]2CC[C@H](CN)CC2)C(=O)Nc2ccc3[nH]c(=O)[nH]c3c2)cc1 [Example 133, 4′-{(2S)-2-({[trans-4-(Aminomethyl)cyclohexyl]carbonyl}amino)-3-oxo-3-[(2-oxo-2,3-dihydro-1H-benzimidazol-5-yl)amino]propyl}-2-methyl-N-[(2S)-1,1,1-trifluoropropan-2-yl]biphenyl-4-carboxamide]	0.1 µmol/L	1.6 nM	6.7 nM
CC(C)NC(=O)c1ccc(-c2ccc(C[C@H](NC(=O)[C@H]3CC[C@H](CN)CC3)C(=O)Nc3ccc4[nH]c(=O)[nH]c4c3)cc2)c(Cl)c1 [Example 137, 4′-{(2S)-2-({[trans-4-(Aminomethyl)cyclohexyl]carbonyl}amino)-3-oxo-3-[(2-oxo-2,3-dihydro-1H-benzimidazol-5-yl)amino]propyl}-2-chloro-N-isopropylbiphenyl-4-carboxamide hydrochloride]	0.07 µmol/L	2.2 nM	11 nM
Cc1cc(C(=O)NC(C)C)ccc1-c1ccc(C[C@H](NC(=O)[C@H]2CC[C@H](CN)CC2)C(=O)Nc2cc(Cl)c3[nH]c(=O)[nH]c3c2)cc1 [Example 158, 4′-{(2S)-2-({[trans-4-(Aminomethyl)cyclohexyl]carbonyl}amino)-3-[(7-chloro-2-oxo-2,3-dihydro-1H-benzimidazol-5-yl)amino]-3-oxopropyl}-N-isopropyl-2-methylbiphenyl-4-carboxamide hydrochloride]	0.1 µmol/L	0.43 nM	3.8 nM
Cc1cc(C(=O)NC(C)C)ccc1-c1ccc(C[C@H](NC(=O)[C@H]2CC[C@H](CN)CC2)C(=O)Nc2ccc(-c3nnc(CCC(=O)O)[nH]3)cc2)cc1 [Example 157, 3-{5-[4-({(2S)-2-({[trans-4-(Aminomethyl)cyclohexyl]carbonyl}amino)-3-[4′-(isopropyl-carbamoyl)-2′-methylbiphenyl-4-yl]propanoyl}amino)phenyl]-4H-1,2,4-triazol-3-yl}propanoic acid hydrochloride]	0.33 µmol/L	1.7 nM	3.6 nM
Cc1cc(C(=O)NC(C)C)ccc1-c1ccc(C[C@H](NC(=O)[C@H]2CC[C@H](CN)CC2)C(=O)Nc2ccc(-c3nn[nH]n3)c(F)c2)cc1 [Example 96, 4′-[(2S)-2-({[trans-4-(Aminomethyl)cyclohexyl]carbonyl}amino)-3-{[3-fluoro-4-(2H-tetrazol-5-yl)phenyl]amino}-3-oxopropyl]-N-isopropyl-2-methylbiphenyl-4-carboxamide hydrochloride]	0.5 µmol/L	1.4 nM	1.3 nM
Cc1cc(C(=O)NC(C)C)ccc1-c1ccc(C[C@H](NC(=O)[C@H]2CC[C@H](CN)CC2)C(=O)Nc2cc(C(=O)O)c3cn[nH]c3c2)cc1 [Example 161, 6-({(2S)-2-({[trans-4-(Aminomethyl)cyclohexyl]carbonyl}amino)-3-[4′-(isopropylcarbamoyl)-2′-methylbiphenyl-4-yl]propanoyl}amino)-1H-indazole-4-carboxylic acid hydrochloride]	–	6.7 nM	6.1 nM
Cc1cc(C(=O)NC(C)C)ccc1-c1ccc(C[C@H](NC(=O)[C@H]2CC[C@H](CN)CC2)C(=O)Nc2ccc3nc[nH]c3c2)cc1 [Example 142, 4′-[(2S)-2-({[trans-4-(Aminomethyl)cyclohexyl]carbonyl}amino)-3-(1H-benzimidazol-6-ylamino)-3-oxopropyl]-N-isopropyl-2-methylbiphenyl-4-carboxamide hydrochloride]	0.33 µmol/L	2.1 nM	15 nM
Cc1cc(C(=O)NC(C)C)ccc1-c1ccc(C[C@H](NC(=O)[C@H]2CC[C@H](CN)CC2)C(=O)Nc2cc(Cl)c3oc(=O)[nH]c3c2)cc1 [Example 156, 4′-{(2S)-2-({[trans-4-(Aminomethyl)cyclohexyl]carbonyl}amino)-3-[(7-chloro-2-oxo-2,3-dihydro-1,3-benzoxazol-5-yl)amino]-3-oxopropyl}-N-isopropyl-2-methylbiphenyl-4-carboxamide hydrochloride]	–	0.58 nM	7.1 nM
Cc1cc(C(=O)NC2CCC2)ccc1-c1ccc(C[C@H](NC(=O)[C@H]2CC[C@H](CN)CC2)C(=O)Nc2ccc(-c3nnn[nH]3)cc2)cc1 [Example 138, 4′-[(2S)-2-({[trans-4-(Aminomethyl)cyclohexyl]carbonyl}amino)-3-oxo-3-{[4-(1H-tetrazol-5-yl)phenyl]amino}propyl]-N-cyclobutyl-2-methylbiphenyl-4-carboxamide hydrochloride]	0.25 µmol/L	2.3 nM	0.84 nM
CC(C)NC(=O)c1ccc(-c2ccc(C[C@H](NC(=O)[C@H]3CC[C@H](CN)CC3)C(=O)Nc3cc(F)c4cn[nH]c4c3)cc2)c(Cl)c1 [Example 134, 4′-{(2S)-2-({[trans-4-(Aminomethyl)cyclohexyl]carbonyl}amino)-3-[(4-fluoro-1H-indazol-6-yl)amino]-3-oxopropyl}-2-chloro-N-isopropylbiphenyl-4-carboxamide hydrochloride]	0.44 µmol/L	0.64 nM	8.9 nM
Cc1cc(C(=O)NC(C)C)ccc1-c1ccc(C[C@@H](NC(=O)C2CCC(CN)CC2)C(=O)Nc2ccc3cn[nH]c3c2)cc1 (single isomer, unassigned; enantiomer 1) [Example 169]	–	270 nM	2800 nM
Cc1cc(C(=O)NC(C)C)ccc1-c1ccc(CC(NC(=O)[C@H]2CC[C@H](CN)CC2)C(=O)Nc2ccc3cn[nH]c3c2)cc1 (mixture of isomers) [Example 21, 4′-[(2R,S)-2-({[trans-4-(Aminomethyl)cyclohexyl]carbonyl}amino)-3-(1H-indazol-6-ylamino)-3-oxopropyl]-N-isopropyl-2-methylbiphenyl-4-carboxamide hydrochloride (enantiomer mixture)]	–	1.1 nM	1.8 nM
Cc1cc(C(=O)NC(C)C)ccc1-c1ccc(C[C@H](NC(=O)[C@H]2CC[C@H](CN)CC2)C(=O)Nc2ccc(-c3nn[nH]n3)cc2)cc1 [Example 7, 4′-[(2S)-2-({[trans-4-(Aminomethyl)cyclohexyl]carbonyl}amino)-3-oxo-3-{[4-(2H-tetrazol-5-yl)phenyl]amino}propyl]-N-isopropyl-2-methylbiphenyl-4-carboxamide hydrochloride]	–	1.9 nM	1.7 nM
CNC(=O)C(F)(F)C(F)(F)c1nnc(-c2ccc(NC(=O)[C@H](Cc3ccc(-c4ccc(C(=O)NC(C)C)cc4C)cc3)NC(=O)[C@H]3CC[C@H](CN)CC3)cc2)[nH]1 [Example 165, 4′-({(2S)-2-({[trans-4-(Aminomethyl)cyclohexyl]carbonyl}amino)-3-oxo-3-[(4-{5-[1,1,2,2-tetrafluoro-3-(methylamino)-3-oxopropyl]-4H-1,2,4-triazol-3-yl}phenyl)amino]propyl}-N-isopropyl-2-methylbiphenyl-4-carboxamide hydrochloride]	–	1.9 nM	1.4 nM
